{"source": "patent US20080253996A1", "about": "“Use of Sdf-1 for the Treatment and/or Prevention of Neurological Diseases” (LABORATORIES SERONO SA, priority 2005, published 2008)", "tested_on": "leukocytes recruited in the peritoneal cavity", "test": "In vivo model of peritoneal cell recruitment", "design": "species or system mouse", "conditions": "4 μg i.p. in Balb/C mice, 4 hours post injection", "description": "8-12 week old, female Balb/C mice (Janvier, France) were injected intra peritoneally (i.p.) with 200 μl NaCl (0.9%, LPS free) or chemokine 4 μg (WT SDF-1α or SDF-1α variant according to SEQ ID NO:4 diluted in 200 μl NaCl (0.9%, LPS free). […] of WT or mutant SDF-1α, mice were sacrificed by CO2 asphyxiation, the peritoneal cavity was washed with 3×5 ml ice cold PBS and the total lavage was pooled for individual mice. Total cells collected were counted by haemocytometer (Neubauer, Germany)."}
{"substance": "SDF-1α: Human recombinant chemokine SDF-1α (SEQ ID NO: 1), produced in house, expressed in E. Coli cells", "values": [{"measurement": "leukocyte recruitment in the peritoneal cavity", "value": "recruits leukocytes"}]}
